Measurements published in patent US20260216239A1 (Arizona Board of Regents on Behalf of the University of …, priority 2020, published 2026).
“Also recorded” adds a separate entry of the source.

How the values were obtained:
Echis leucogaster venom [1] = conditions: previously characterized by this laboratory; cited from earlier work
Echis leucogaster venom [2] = assay: Thrombelastography in human plasma of venom procoagulant activity after isolated exposure of venom to compounds; type: biochemical; conditions: venom exposed 5 min to 100 μM CORM-2 in 5% human albumin; venom 1 μg/mL in plasma
[3] = system: Oxyuranus microlepidotus venom; assay: as above; type: biochemical; conditions: venom 1 μg/ml in plasma; for procoagulant activity of venom: venom exposed ≥5 min in PBS to 100 μM CORM-2, 100 μM RuCl3 or both
Protocol: Thrombelastographic analyses. The volumes of subsequently described plasmatic and other additives summed to a final volume of 360 μl. Samples were composed of 320 μl of plasma; 16.4 μl of PBS, 20 μl of 200 mM CaCl2), and 3.6 μl of PBS or venom mixture, which were pipetted into a disposable cup in a Thrombelastograph® hemostasis system (Model 5000, Haemonetics Inc., Braintree, MA, USA) at 37° C., and then rapidly mixed by moving the cup up against and then away from the plastic pin five times. The following viscoelastic parameters described previously (see, Nielsen V G (2019) J Thromb Thrombolysis 47, 73-79; Gessner G, et al., (2017) Eur J Pharmacol 815, 33-41; Nielsen V G, Wagner M T, Frank N (2020) Int J Mol Sci 21, 2082; Lazić D, Arsenijević A, Puchta R, Bugarčić ŽD, Rilak A (2016) Dalton Trans 45, 4633; Hanif M, et al., (2017) ChemPlusChem 82, 841-847) were measured: time to maximum rate of thrombus generation (TMRTG): this is the time interval (minutes) observed prior to maximum speed of clot growth; maximum rate of thrombus generation (MRTG): this is the maximum velocity of clot growth observed (dynes/cm^2/second); and total thrombus generation (TTG, dynes/cm^2), the final viscoelastic resistance observed after clot formation.
O. microlepidotus. This venom was exposed to 0 or 100 μM CORM-2 in the presence of 0 or 100 μM RuCl3 in PBS for at least 5 minutes at room temperature prior to placement into plasma followed immediately with commencement of thrombelastographic analysis. The final concentration of this venom in plasma was 1 μg/ml.
Given the aforementioned, the experimental conditions utilized were: 1) V condition—venom in PBS; 2) Ru(II) condition—venom exposed to CORM-2; 3) Ru(III) condition—venom exposed to RuCl3; 4) Ru(II+III) condition—venom exposed to CORM-2 and RuCl3 simultaneously. After the 5 minute period at room temperature, 3.6 μl of one of these solutions was added to the plasma sample in the plastic thrombelastograph cup.
The volumes of subsequently described plasmatic and other additives summed to a final volume of 360 μl. Samples were composed of 320 μl of plasma; 16.4 μl of PBS, 20 μl of 200 mM CaCl2), and 3.6 μl of PBS or venom mixture, which were pipetted into a disposable cup in a Thrombelastograph® hemostasis system (Model 5000, Haemonetics Inc., Braintree, MA, USA) at 37° C., and then rapidly mixed by moving the cup up against and then away from the plastic pin five times. The following viscoelastic parameters described previously (see, Nielsen, V. G. J Thromb Thrombolysis 2019, 47, 73-79; Gessner, G.; et al., Eur J Pharmacol 2017, 815, 33-41; Nielsen, V. G.; Wagner, M. T.; Frank, N. Int J Mol Sci 2020, 21, 2082; Lazid, D.; et al., Dalton Trans 2016, 45, 4633; Hanif, M.; et al., ChemPlusChem 2017, 82, 841-847) were measured: time to maximum rate of thrombus generation (TMRTG): this is the time interval (minutes) observed prior to maximum speed of clot growth; maximum rate of thrombus generation (MRTG): this is the maximum velocity of clot growth observed (dynes/cm2/second); and total thrombus generation (TTG, dynes/cm2), the final viscoelastic resistance observed after clot formation. […]

[4] = 100 μM CORM-2, 100 μM RuCl3 or both

SMILES: [C-]#[O+].[C-]#[O+].[C-]#[O+].[C-]#[O+].[C-]#[O+].[C-]#[O+].[Cl][Ru][Cl].[Cl][Ru][Cl] [CORM-2, tricarbonyldichlororuthenium(II) dimer]
- CORM-2/ iRM Inhibition (Echis leucogaster venom [1]): Yes
- procoagulant activity of venom (Echis leucogaster venom [2]): uninhibited
- maximum rate of thrombus generation (MRTG) [3, 4]: decrease
- time to maximum rate of thrombus generation (TMRTG) [3, 4]: prolonged; also recorded: significant increase
- total thrombus generation (TTG) [3, 4]: decrease
- procoagulant activity of venom [3]: significant decrease; also recorded: procoagulant activity inhibition

SMILES: [Cl][Ru]([Cl])[Cl] [RuCl3, ruthenium(III) chloride]
- procoagulant activity of venom [3]: did not significantly affect
